Laboratory results as given in patent publication US20190054054A1, “Methods reducing or preventing oxidation of high density lipoprotein (HDL)” (Amarin Pharmaceuticals Ireland Limited, priority 2017, published 2019).
Where “and” joins values, the source holds several entries; their conditions need not be identical. Identical values can stand only once.

Tests used:
[1] = Membrane cholesterol domain peak intensity, x-ray diffraction of POPC/cholesterol membranes (Example 9); details: 1.5:1 C/P mole ratio; for % change Vs control / Relative Cholesterol Domain Preak Intensity: drug-to-phospholipid mole ratio 1:30; for Relative Cholesterol Domain Preak Intensity: POPC and cholesterol
Protocol: The fatty acid stock solutions were stored at −20° C. until use. […] Samples were shell-dried under nitrogen gas and placed under vacuum for 3 hours to remove residual solvent at room temperature. After desiccation, each sample was resuspended in saline buffer (0.5 mM HEPES, 154 mM NaCl, pH 7.3) to yield a final phospholipid concentration of 2.5 mg/mL. Lipid suspensions were then vortexed for 3 minutes at ambient temperature to form MLVs. Membrane lipid vesicles were oriented for x-ray diffraction analysis as described by others (e.g., Herbette et al., Biophys. […] Briefly, a 100 μL aliquot of each MLV preparation (containing 250 μg MLV) was transferred to a Lucite® sedimentation cell fitted with an aluminum foil substrate designed to collect MLVs into a single membrane pellet upon centrifugation. […] After centrifugal orientation, sample supernatants were aspirated and aluminum foil substrates, each supporting a single membrane pellet, were removed from the sedimentation cells. Sample pellets were dried for 5-10 minutes at ambient conditions, mounted onto curved glass supports, and placed in hermetically-sealed, brass or glass containers (for immediate analysis or temporary storage, respectively). All x-ray diffraction experiments were conducted at 20° C., 74% relative humidity. The latter was established by exposing membrane samples to saturated solutions of L-(+)-tartaric acid (K2C4H4O6.½H2O) for at least 1 hour prior to experimental analysis. Oriented membrane samples were aligned at grazing incidence with respect to a collimated, mono-chromatic CuKα x-ray beam (Kα1 and Kα2 unresolved; λ=1.54 Å) produced by a Rigaku Rotaflex RU-200, high-brilliance microfocus generator (Rigaku-MSC, The Woodlands, Tex.) as previously described (Mason et al., Biophys. J., vol. 55(4), pages 769-778 (1989)). The samples were initially subjected to x-ray diffraction analysis at least 12 hours after formation of the membrane pellets and retested for up to several days. Analytical x-rays were generated by electron bombardment of a rotating copper anode and are filtered through a thin nickel foil to provide monochromatic radiation (λ=1.54 Å). Collimation of the x-ray beam was achieved using a single Franks mirror. Diffraction data were collected on a one-dimensional, position-sensitive electron detector (Hecus X-ray Systems, Graz, Austria) at a sample-to-detector distance of 150 mm from the sample site. The d-space for any given membrane multi bilayer is a measurement of the unit cell periodicity of the membrane lipid bilayer (e.g., the distance from the center of one lipid bilayer to the next including surface hydration), and is calculated from Bragg's Law, h λ=2 d sin θ, where h is the diffraction order, λ is the wavelength of the x-ray radiation (1.54 Å), d is the membrane lipid bilayer unit cell periodicity, and θ is the Bragg angle equal to one-half the angle between the incident beam and scattered beam. […] Routines written in Origin 8.6 (OriginLab Corporation, Northampton, Mass.) were used to determine total peak area (associated with all diffraction peaks in a given pattern) against which the second-order cholesterol domain peak was normalized. The raw data collected in this study was normalized using internal. Data were presented as mean+S.E.M. for (N) separate samples or treatment groups. Differences between groups were analyzed using the two-tailed, Student's t-test (for comparisons between only two groups) or ANOVA followed by Dunnett or Student-Newman-Keuls multiple comparisons post-hoc analysis (for comparisons between three or more groups). Alpha error was set to 0.05 in this study.

[2] = tested on: HUVECs exposed to oxLDL; test: NO and ONOO^− release from HUVECs exposed to oxLDL, nanosensors (Example 8); format: cell-based, human; details: oxLDL 20 min, then treatment for 1 hour; EPA 10 μM, ATM 1.0 μM
Protocol: Human umbilical vein endothelial cells (HUVECs) were isolated into primary cultures from female donors by Clonetics (San Diego, Calif.) and purchased as proliferating cells. All cell culture donors were healthy, with no pregnancy or prenatal complications. […] The confluent cells (4 to 5×10^5 cells/35 mm dish) were placed with minimum essential medium containing 3 mM L-arginine and 0.1 mM BH4 [(6R)-5,6,7,8-tetrahydrobiopterin]. Before experimental use, the cells (from second or third passage) were rinsed twice with Tyrode-HEPES buffer with 1.8 mM CaCl2).
The omega-3 fatty acids (O3FAs) cis-5,8,11,14,17-eicosapentaenoic acid (EPA) and docosahexaenoic acid (DHA) were purchased from Sigma-Aldrich (St. Louis, Mo.) and prepared initially at 11 mM in redistilled ethanol. Primary and secondary O3FA stock solutions were prepared and stored under argon at −20° C.
The oxLDL causes eNOS uncoupling and endothelial dysfunction to reproduce disease-like conditions. 25 Venous blood from healthy normolipidemic volunteers was collected into Na-EDTA (1 mg/mL blood) vacuum tubes after a 12-hour fast. Plasma was immediately separated by centrifugation at 3,000 g for 10 minutes at 4° C.
Tris-NaCl buffer was added to the dialyzed LDL to adjust the protein concentration to 30 mg/mL. A 1-mL aliquot of 20 μM CuSO4 was added to 1 mL of dialyzed normal LDL.
Oxidation was monitored by the use of measurements of TBARS. Briefly, LDL was incubated with thiobarbituric acid (0.5 wt/vol, in H2SO4, 50 mM) for 30 minutes at 100° C. […] TBARS concentration was determined as malondialdehyde (MDA) equivalents with the use of an MDA standard curve.
Concurrent measurements of NO and ONOO^− were performed with tandem electrochemical nanosensors combined into one working unit with a total diameter of 200-400 nm. Their design was based on previously developed and chemically modified carbon-fiber technology. Each of the nanosensors was made by depositing a sensing material on the tip of a carbon fiber (length 4 to 5 μm, diameter 100-200 nm). The fibers were sealed with nonconductive epoxy and electrically connected to copper wires with conductive silver epoxy. Conductive films of polymeric Ni(II) tetrakis (3-methoxy-4-hydroxyphenyl) porphyrin and Mn(III) [2.2] paracyclophanylporphyrin were used for the NO and ONOO^− sensors, respectively.
The amperometric method (with a response time of 0.1 ms) provides a quantitative signal (current) that is directly proportional to changes (from basal levels) in NO or ONOO^− concentration. Amperometric measurements were performed with a Gamry III double-channel potentiostat. Basal NO or ONOO^− levels were measured by differential pulse voltammetry in separate experiments.
All measurements of NO and ONOO^− were performed on intact endothelial cells. The NO/ONOO^− nanosensor module was positioned 5±2 μm from the surface of each individual endothelial cell using a computer-controlled M3301 micromanipulator (x-y-z resolution of 0.2 μm) and microscope (both from World Precision Instruments, Berlin, Germany) fitted with a CD camera.
Endothelial basal media was used for all the treatments. Controls were supplied with an equivalent volume of endothelial basal media.
Data are presented as mean±S.D. for (N) separate samples or experiments. Differences between groups were analyzed using the two-tailed, Student t-test (for comparisons between only two groups) or ANOVA followed by Student-Newman-Keuls multiple comparisons post-hoc analysis (for comparisons between three or more groups). Only differences with probability values less than 0.05 were considered significant.

[3] = tested on: HUVECs; test: NO release from HUVECs incubated with agent-treated oxidized sdLDL (Example 12); format: cell-based, human; details: oxidized sdLDL pretreated with agent at 10.0 μM
Protocol: All samples, with the exception of non-oxidized sdLDL controls, were subjected to copper-induced oxidation for 1 hour. Human umbilical vein endothelial cells (HUVECs) were incubated with the various sdLDL samples, stimulated with calcium, and monitored for nitric oxide (NO) and peroxynitrite (ONOO^−) release using nanosensor technology.

Compound	% change Vs control [1]	Relative Cholesterol Domain Preak Intensity [1]	reduction in cholesterol domain peaks as compared to vehicle treatment ([1]; 1:30) [%]	Relative Cholesterol Domain Preak Intensity ([1]; listed as glycyrrhizin)	ONOO^− [2]	reduction of NO release as compared to vehicle-treated, oxidized sdLDL [3] [%]
CCCCC/C=C\C/C=C\C/C=C\C/C=C\CCCC(=O)O [AA, arachidonic acid]	−45.2% and −46.8 ± 15.2%	22.5 ± 4.3				
CC/C=C\C/C=C\C/C=C\CCCCCCCC(=O)O [ALA, α-linolenic acid]	−46.8% and −45.2 ± 11.3%	23.2 ± 0.6				
CC1(C)[C@@H](O[C@H]2O[C@H](C(=O)O)[C@@H](O)[C@H](O)[C@H]2O[C@@H]2O[C@H](C(=O)O)[C@@H](O)[C@H](O)[C@H]2O)CC[C@]2(C)[C@H]3C(=O)C=C4[C@@H]5C[C@@](C)(C(=O)O)CC[C@]5(C)CC[C@@]4(C)[C@]3(C)CC[C@@H]12 [Glyc, glycyrrhizin]	−54.9 ± 12.3%	19.1 ± 1.2	54.9	19.1±1.2		
CC(C)OC(=O)C(C)(C)Oc1ccc(C(=O)c2ccc(Cl)cc2)cc1 [fenofibrate]					299 ± 24	21
